Experimental data: patent US5658885A, “Amidino and guanidino substituted boronic acid inhibitors of trypsin-like enzymes” (The DuPont Merck Pharmaceutical Company, priority 1994, dated 1997)
Where a name gives a salt, the structure may show the parent alone.

Tests used:
Assay type in all cases: biochemical
human thrombin = target: T1, human thrombin (Homo sapiens, UniProt P00734); assay: Inhibition of thrombin hydrolysis of chromogenic substrate S2238 (Ki); conditions: S2238, pH 7.5
T1 construct: 0.2-0.5 nM human thrombin or human factor Xa; purchased Enzyme Research Laboratories, South Bend, Ind
Method: (§1) The effectiveness of compounds of the present invention as inhibitors of blood coagulation proteases was determined using purified human proteases and synthetic substrates following procedures similar to those described in Kettner et al. (1990).
(§2) For these assays, the rate of enzymatic (thrombin, Factor Xa, and Factor VIIa) hydrolysis of chromogenic substrates (S2238 (H-D-Phe-Pip-Arg-pNA), S2222, and S2288, respectively; Kabi Pharmacia, Franklin, Ohio) was measured both in the absence and presence of compounds of the present invention. […] A decrease in the rate of absorbance change at 405 nm in the presence of inhibitor is indicative of enzyme inhibition. The results of this assay are expressed as inhibitory constant, Ki.
(§3) Thrombin and Xa determinations were made in 0.10M sodium phosphate buffer, pH 7.5, containing 0.20M NaCl, and 0.5% PEG 8000. VIIa determinations were made in 0.05M tris buffer, pH 7.6, containing 0.10M NaCl, 4 mM CaCl2, and 0.1% bovine serum albumin.
(§4) Reactions were allowed to go for 30 minutes and the velocities (rate of absorbance change vs time) were measured in the time frame of 25-30 minutes. The following relationship was used to calculate Ki values. [formula] where: vo is the velocity of the control in the absence of inhibitor;
(§5) vs is the velocity in the presence of inhibitor;
(§6) I is the concentration of inhibitor;
(§7) Ki is the dissociation constant of the enzyme: inhibitor complex;
(§8) S is the concentration of substrate;
(§9) Km is the Michaelis constant.

human factor Xa = target: T2, human factor Xa (Homo sapiens, UniProt P00742); assay: Inhibition of Factor Xa hydrolysis of chromogenic substrate S2222 (Ki); conditions: S2222, pH 7.5
T2 construct: 0.2-0.5 nM human thrombin or human factor Xa; purchased Enzyme Research Laboratories, South Bend, Ind
Method: as §1, §2, §3, §4, §5, §6, §7, §8, §9

human factor VIIa = target: T3, human factor VIIa (Homo sapiens, UniProt P08709); assay: Inhibition of Factor VIIa hydrolysis of chromogenic substrate S2288 (Ki); conditions: S2288, pH 7.6
T3 construct: 50 nM human factor VIIa (BiosPacific, Emeryville, Calif.); purchased BiosPacific, Emeryville, Calif
T3 sequence (P08709 213-466 limits assumed): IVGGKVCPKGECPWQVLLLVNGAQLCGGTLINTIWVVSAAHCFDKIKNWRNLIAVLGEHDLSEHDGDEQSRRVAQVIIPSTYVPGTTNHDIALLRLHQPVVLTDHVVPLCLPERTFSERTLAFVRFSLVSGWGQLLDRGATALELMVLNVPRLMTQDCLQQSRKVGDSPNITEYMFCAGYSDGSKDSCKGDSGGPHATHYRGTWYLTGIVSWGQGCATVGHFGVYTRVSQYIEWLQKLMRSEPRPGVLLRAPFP
T3 sequence (P08709 61-212 limits assumed): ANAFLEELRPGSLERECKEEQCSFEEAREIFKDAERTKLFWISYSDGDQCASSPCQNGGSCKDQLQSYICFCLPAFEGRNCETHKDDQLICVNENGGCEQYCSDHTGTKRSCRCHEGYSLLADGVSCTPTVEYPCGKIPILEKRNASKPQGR
Method: as §1, §2, §3, §4, §5, §6, §7, §8, §9

T2 sequence (P00742 235-488 limits assumed): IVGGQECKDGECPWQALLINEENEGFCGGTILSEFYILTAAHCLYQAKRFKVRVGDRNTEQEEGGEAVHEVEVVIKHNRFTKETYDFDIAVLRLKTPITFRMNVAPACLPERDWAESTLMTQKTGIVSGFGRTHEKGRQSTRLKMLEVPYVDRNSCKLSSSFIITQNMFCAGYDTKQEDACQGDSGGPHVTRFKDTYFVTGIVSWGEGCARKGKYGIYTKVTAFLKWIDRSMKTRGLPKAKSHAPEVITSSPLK
T2 sequence (P00742 41-179 limits assumed): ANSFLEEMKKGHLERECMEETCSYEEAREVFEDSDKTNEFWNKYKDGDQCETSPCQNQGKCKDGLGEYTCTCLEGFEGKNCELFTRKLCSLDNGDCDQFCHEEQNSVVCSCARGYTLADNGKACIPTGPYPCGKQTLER

Row | Ki (human thrombin) [nM] | Ki (human factor Xa) [nM] | Ki (human factor VIIa) [nM] | Molecule
1 | < 500 | < 500 | – | CN(C)C(Cc1ccccc1)C(=O)N1CCCC1C(=O)NC(Cc1cccc(C#N)c1)B(O)O (single isomer, unassigned; isomer i) [Example 20, N,N-(CH3)2 --(D)Phe--Pro--boroPhe--(m-CN)--OH.HCl (ISOMER I)]
2 | < 500 | < 50000 | < 500 | CC(=O)N[C@H](Cc1ccccc1)C(=O)N1CCC[C@H]1C(=O)N[C@@H](Cc1cccc(C#N)c1)B(O)O [Example 23, Ac--(D)Phe--Pro--boroPhe--(m-CN)--OH.HCl]
3 | < 500 | < 500 | – | CNC(Cc1ccccc1)C(=O)N1CCCC1C(=O)NC(Cc1cccc(C#N)c1)B1OC2CC3CC(C3(C)C)C2(C)O1 (stereo not shown) [Example 25, N--CH3 --(D)Phe--Pro--boroPhe(m-CN)--C10 H16.HCl]
4 | < 500 | < 500 | – | CC(C)(C)OC(=O)N[C@H](Cc1cccnc1)C(=O)N1CCCC1C(=O)NC(Cc1cccc(C#N)c1)B1OC2CC3CC(C3(C)C)C2(C)O1 (stereo partly shown) [Example 28, Boc--(D)3-Pyridylalanine-Pro--boroPhe--(m-CN)-C10 H16]
5 | < 500 | < 500 | – | CC1(C)C2CC3OB(C(Cc4cccc(C#N)c4)NC(=O)C4CCCN4C(=O)C(N)Cc4cccnc4)OC3(C)C1C2 (stereo not shown) [Example 30, H--(D)3-Pyridylalanine-Pro--boroPhe(m-CN)--C10 H16.HCl]
6 | < 500 | < 500 | – | CC1(C)C2CC3OB(C(Cc4cccc(C#N)c4)NC(=O)C4CCCN4C(=O)[C@@H](Cc4cccnc4)NS(C)(=O)=O)OC3(C)C1C2 (stereo partly shown) [Example 32, Ms--(D)3-Pyridylalanine-Pro--boroPhe(m-CN)--C10 H16]
7 | < 500 | < 500 | < 500 | CC(C)(C)OC(=O)N[C@H](Cc1ccccn1)C(=O)N1CCCC1C(=O)NC(Cc1cccc(C#N)c1)B1OC2CC3CC(C3(C)C)C2(C)O1 (stereo partly shown) [Example 34, Boc--(D)2-Pyridylalanine-Pro--boroPhe(m-CN)--C10 H16]
8 | < 500 | < 500 | < 500 | CC(C)(C)OC(=O)NC(Cc1cccs1)C(=O)N1CCCC1C(=O)NC(Cc1cccc(C#N)c1)B1OC2CC3CC(C3(C)C)C2(C)O1 (stereo not shown) [Example 36, Boc--(D)2-Thienylalanine-Pro--boroPhe(m-CN)--C10 H16]
9 | < 500 | < 50000 | < 500 | CC1(C)C2CC3OB(C(Cc4cccc(C#N)c4)NC(=O)[C@@H]4CCCN4C(=O)[C@H](N)Cc4ccccn4)OC3(C)C1C2 (stereo partly shown) [Example 37, H--(D)2-Pyridylalanine-Pro--boroPhe(m-CN)--C10 H16.HCl]
10 | < 500 | < 50000 | < 500 | CC1(C)C2CC3OB(C(Cc4cccc(C#N)c4)NC(=O)[C@@H]4CCCN4C(=O)[C@H](N)Cc4cccs4)OC3(C)C1C2 (stereo partly shown) [Example 38, H--(D)2-Thienylalanine-Pro--boroPhe(m-CN)--C10 H16.HCl]
11 | < 500 | < 500 | < 500 | CC1(C)C2CC3OB(C(Cc4cccc(C#N)c4)NC(=O)[C@@H]4CCCN4C(=O)[C@@H](Cc4ccccn4)NS(C)(=O)=O)OC3(C)C1C2 (stereo partly shown) [Example 39, Ms--(D)2-Pyridylalanine-Pro--boroPhe(m-CN)--C10 H16]
12 | < 500 | < 500 | < 500 | CC1(C)C2CC3OB(C(Cc4cccc(C#N)c4)NC(=O)C4CCCN4C(=O)C(Cc4cccs4)NS(C)(=O)=O)OC3(C)C1C2 (stereo not shown) [Example 40, Ms--(D)2-Thienylalanine-Pro--boroPhe(m-CN)--C10 H16]
13 | < 500 | < 50000 | < 500 | N=CNCCCC(NC(=O)C1CCCN1C(=O)CCc1ccccc1)B(O)O (stereo not shown) [Example 48]
14 | < 500 | < 50000 | – | CC1(C)C2CC3OB(C(CCCNC(N)=O)NC(=O)C4CCCN4C(=O)C(Cc4ccccc4)NS(=O)(=O)Cc4ccccc4)OC3(C)C1C2 (stereo not shown) [Example 110, PhCH2 SO2 --(D)Phe--Pro--boroOrn(CONH2)--C10 H16]
15 | < 500 | < 50000 | – | CC(=O)N[C@H](Cc1ccccc1)C(=O)N1CCCC1C(=O)NC(CC1CCC(N)CC1)B1OC2CC3CC(C3(C)C)C2(C)O1 (stereo partly shown) [Example 124]
16 | < 500 | < 50000 | < 50000 | CC(=O)NCCCCC(NC(=O)C1CCCN1C(=O)CCc1ccccc1)B1OC2CC3CC(C3(C)C)C2(C)O1 (stereo not shown) [Example 136, Hydrocinnamoyl-ProboroGly[(CH2)4 --NH--Acetyl]C10 H16]
17 | < 500 | – | < 50000 | COCCCC(NC(=O)C1CCCN1C(=O)C(Cc1ccccc1)NCC(=O)O)B1OC2CC3CC(C3(C)C)C2(C)O1 (stereo not shown) [Example 140, HO2 CCH2 --(D)--Phe--Pro--boroGly[(CH2)3 --OCH3]--C10 H16]
18 | < 500 | < 50000 | < 50000 | COCCCC(NC(=O)[C@@H]1CCCN1C(=O)[C@@H](Cc1ccccc1)N(C)C)B1OC2CC3CC(C3(C)C)C2(C)O1 (stereo partly shown) [Example 141, N,N-dimethyl-(D)--Phe--Pro--boroGly[(CH2)3 --OCH3]--C10 H16]
19 | < 500 | – | – | Ac--(D)Phe--Pro--boroIrg(CH3)--OH.HBr [Example 52]
20 | < 50000 | – | – | Ac--Pro--boroPhe(m-CN)--C10 H16 [Example 35]
21 | < 500 | – | – | Boc--(D)Phe--Aze--boroOrn(CH=NH)--OH.HCl [Example 74]
22 | < 500 | – | – | Boc--(D)Phe--Pro--NH--CH[4-amino-cyclohexyl]BO2 --C10 H16 [Example 126]

Row | Ki (human thrombin) [nM] | Ki (human factor Xa) [nM] | Ki (human factor VIIa) [nM] | Molecule
23 | < 500 | < 50000 | < 500 | Boc--(D)Phe--Pro--boroGly[(CH2)3 --ONH2 ]--OH.HCl [Example 102]
24 | < 500 | – | – | Boc--(D)Phe--Pro--boroOrn(COCH3)--C10 H16 [Example 123]
25 | < 500 | – | – | Boc--(D)Phe--Pro--boroOrn[C(NCN)SCH3 ]--C10 H16 [Example 107]
26 | < 500 | < 500 | – | Boc--(D)Thiazolylalanine-Pro--boroPhe(m-CN)--C10 H16 [Example 27]
27 | < 500 | – | – | CH3 (CH2)3 SO2 --(D)Phe--Pro--boroArg(CH3)--OH.HCl [Example 65]
28 | < 500 | – | – | Cbz--(D)Phe--Pro--boroIrg(CH3)--C10 H16.HBr [Example 51]
29 | < 500 | – | – | H--(D)Phe--Pro--boroOrn(CH=NH)]--C10 H16.0.5 HCl.0.5 BSA [Example 8]
30 | < 500 | – | – | H--(D)Phe--Pro--boroOrn(CONH2)--C10 H16.HCl [Example 109]
31 | < 500 | – | – | H--(D)Phe--Pro--boroPhe(m-CN)--C10 H16.HCl [Example 18]
32 | < 500 | – | – | H--(D)Thiazolylalanine-Pro--boroPhe(m-CN)--C10 H16.HCl [Example 29]
33 | < 500 | – | – | HOOCCH2 --(D)Phe--Pro--boroOrn(CONH2)--C10 H16.HCl [Example 111]
34 | < 500 | – | – | HOOCCH2 --(D)Phe--Pro--boroOrn[C(NCN)NHCH3 ]--C10 H16.HCl [Example 106]
35 | < 500 | – | – | Hydrocinnamoyl-Pro--boroArg(CH3)--OH.HCl [Example 55]
36 | < 50000 | – | – | Hydrocinnamoyl-Pro--boroIrg(CH2 CH3)--OH.HBr [Example 53]
37 | > 500000 | – | – | Hydrocinnamoyl-Pro--boroIrg(CH2 CH=CH2)--OH.HBr [Example 49]
38 | < 50000 | – | – | Hydrocinnamoyl-Pro--boroIrg(CH3)--OH.HBr [Example 50]
39 | < 500 | < 500 | – | Ms--(D)Phe--Pro--boroPhe(m-CN)--OH.HCl [Example 24]
40 | < 500 | – | – | N-alpha-[boroOrn(CH=NH)--OH]-(2-trans benzylcarboxamido)-cyclopentane-1-carboxamide.HCl [Example 71]
41 | < 500 | – | – | PhCH2 SO2 --(D)Phe--Pro--boroArg(CH3)--OH.HCl [Example 61]
42 | < 500 | – | – | PhCH2 SO2 --(D)Phe--Pro--boroOrn(CH=NH)--OH.HCl [Example 62]
43 | < 500 | – | – | PhSO2 --(D)Phe--Pro--boroArg(CH3)--OH.HCl [Example 58]
44 | < 500 | – | – | PhSO2 --(D)Phe--Pro--boroOrn(CH=NH)--OH.HCl [Example 59]
